From patent publication US20250093263A1, “FRET-BASED ASSAYS” (The General Hospital Corporation, priority 2021, published 2025)
Where “and” joins values, the source holds several entries; their conditions need not be identical. Identical values can stand only once. Like-named read-outs stand apart in the source and are kept apart here.

Legend:
[1] = target: T1, MtbPheRS (Mycobacterium tuberculosis phenylalanyl-tRNA synthetase) (Mycobacterium tuberculosis, UniProt P9WFU3); assay: PheRS activity-based assay, MtbPheRS; format: biochemical
T1 construct: made in house; host or cells: Mycobacterium

[2] = target: T2, HscPheRS (human cytoplasmic phenylalanyl-tRNA synthetase) (Homo sapiens, UniProt Q9Y285); assay: PheRS activity-based assay, HscPheRS; format: biochemical
T2 construct: made in house; host or cells: E. coli
T2 sequence (Q9Y285 1-508): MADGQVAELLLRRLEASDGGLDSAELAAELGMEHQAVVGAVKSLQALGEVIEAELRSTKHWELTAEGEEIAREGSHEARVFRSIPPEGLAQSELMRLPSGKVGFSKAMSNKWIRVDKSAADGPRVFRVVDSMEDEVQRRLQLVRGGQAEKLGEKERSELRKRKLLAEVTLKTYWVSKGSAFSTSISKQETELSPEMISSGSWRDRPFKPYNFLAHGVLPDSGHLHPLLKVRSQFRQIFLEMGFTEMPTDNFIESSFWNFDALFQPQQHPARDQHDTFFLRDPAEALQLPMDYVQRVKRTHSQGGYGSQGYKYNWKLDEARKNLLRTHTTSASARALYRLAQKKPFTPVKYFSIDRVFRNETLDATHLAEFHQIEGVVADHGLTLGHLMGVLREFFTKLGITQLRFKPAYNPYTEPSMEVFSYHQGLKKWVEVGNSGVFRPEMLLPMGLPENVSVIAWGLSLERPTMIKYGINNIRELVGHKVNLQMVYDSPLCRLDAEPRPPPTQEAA
T2 sequence (Q9NSD9 1-589 partner): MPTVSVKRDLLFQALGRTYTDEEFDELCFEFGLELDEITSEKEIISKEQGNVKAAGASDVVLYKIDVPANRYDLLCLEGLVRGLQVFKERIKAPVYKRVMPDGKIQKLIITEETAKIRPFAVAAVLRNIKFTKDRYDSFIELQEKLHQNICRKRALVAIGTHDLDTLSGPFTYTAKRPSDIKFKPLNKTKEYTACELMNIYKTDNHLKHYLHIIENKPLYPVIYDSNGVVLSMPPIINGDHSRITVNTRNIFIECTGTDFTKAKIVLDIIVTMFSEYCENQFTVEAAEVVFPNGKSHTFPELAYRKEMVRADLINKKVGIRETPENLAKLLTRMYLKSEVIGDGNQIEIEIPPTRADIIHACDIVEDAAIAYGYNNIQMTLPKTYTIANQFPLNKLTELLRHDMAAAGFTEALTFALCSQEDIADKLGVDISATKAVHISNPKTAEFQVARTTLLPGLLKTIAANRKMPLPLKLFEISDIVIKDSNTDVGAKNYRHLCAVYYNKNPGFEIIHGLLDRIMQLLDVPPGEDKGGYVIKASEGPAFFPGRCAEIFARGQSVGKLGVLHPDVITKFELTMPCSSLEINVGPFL

[3] = target: T3, HsGluProRS (Homo sapiens, UniProt P07814); assay: HsGluProRS TR-FRET in HEK293 lysate; format: binding; conditions: 250 nM tracer, serially diluted HEK293T lysate, anti-HsGluProRS antibodies
T3 construct: assay was developed utilizing native proteins in cell lysate or intact cells; endogenous in cells
Text: Freshly prepared HEK293 cell lysates were serial diluted into flat-bottom, white 384-well plates (Corning 3572).
Abcam ab31531 was raised against an Abcam-proprietary, recombinant, full-length HsGluProRS protein. Proteintech 67712-1-Ig was raised against a peptide encoding HsGluProRS residues 1163-1512. Cell Signaling Technology CST45956 was raised against a peptide encoding residues surrounding HsGluProRS^P978. CTK0101 (ChromTek) anti-Rabbit-IgG secondary nanobody (single domain nanobody) was previously labeled with CoraFluor-1-Pfp and validated to bind Rabbit IgG antibodies with high affinity.
For the TR-FRET assay, HEK293T lysate was serially diluted into 384-well plates containing constant concentrations of tracer (either 250 nM MAT574 for ProRS or 250 nM MAT579 for GluRS), one of the antibodies (5 nM), and for the unlabeled antibodies, CoraFluor-1-Pfp labeled nano secondary (20 nM).

[4] = pH 7.4, 1-octanol / sodium phosphate buffer
[5] = target: T4, Keap1 (His/GST) (Homo sapiens, UniProt Q14145); assay: biochemical
[6] = target: T5, WT Keap1 (tag-free, full-length) (Homo sapiens, UniProt Q14145); assay: biochemical; conditions: read-out: Assay 1: % at 100
[7] = target: T5, WT Keap1 (tag-free, full-length); assay: Keap1 TR-FRET Assay 2 (CDDO-FITC/Cora-1-KL9)
[8] = target: T4, Keap1 (His/GST); assay: Keap1 TR-FRET Assay 3 (CDDO-FITC/Tb-Anti-6xHis); format: binding
[9] = target: T5, WT Keap1 (tag-free, full-length); assay: biochemical
[10] = target: T6, HsProRS (Homo sapiens, UniProt P07814); assay: TR-FRET ProRS ligand displacement / saturation binding assay, HsProRS; conditions: absence of substrates; read-out: HsProRS (KD [nM]) −
T6 construct: made in house; host or cells: SoluBL-21 E. coli
T6 sequence (P07814 996-1512): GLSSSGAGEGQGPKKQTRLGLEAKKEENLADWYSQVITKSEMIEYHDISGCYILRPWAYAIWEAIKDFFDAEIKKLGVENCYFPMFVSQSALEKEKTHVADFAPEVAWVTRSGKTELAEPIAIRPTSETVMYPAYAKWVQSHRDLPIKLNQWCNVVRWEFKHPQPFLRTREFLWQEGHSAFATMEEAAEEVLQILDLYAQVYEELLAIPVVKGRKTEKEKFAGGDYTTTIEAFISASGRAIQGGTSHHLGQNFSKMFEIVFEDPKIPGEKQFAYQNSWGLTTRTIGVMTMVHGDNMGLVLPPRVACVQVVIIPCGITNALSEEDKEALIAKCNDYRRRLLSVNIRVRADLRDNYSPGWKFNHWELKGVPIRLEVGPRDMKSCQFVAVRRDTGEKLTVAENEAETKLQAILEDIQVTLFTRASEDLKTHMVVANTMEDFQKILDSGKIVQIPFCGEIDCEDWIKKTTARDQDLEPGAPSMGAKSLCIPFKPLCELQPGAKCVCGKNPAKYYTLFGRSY
Procedure: (§1) A stock solution containing CoraFluor-1-Halo-labeled HT-PfcProRS or CoraFluor-1-Halo-labeled HT-HsProRS at the concentration specified for each experiment was prepared in assay buffer (50 mM Tris, pH 7.5, 20 mM KCl, 10 mM MgCl2, 0.05% Tween-20, 1 mM dithiothreitol, and 0.5 mg/mL BSA). […] Plates were mixed on an Ika MTS 2/4 Digital Microtiter Shaker at 750 rpm for 2 min, centrifuged at 1,000×g at 25° C. for 1 min. and allowed to equilibrate at room temperature for 2 h before TR-FRET measurements were taken. […] PRISM 9 (GraphPad) was used to perform non-linear regression analysis (one site—specific binding), plot dose-response curves, and calculate KD values.
(§2) A Multidrop Combi Reagent Dispenser (ThermoFisher Scientific) was used to dispense 20 μL of 2× protein solution into each well. […] Plates were mixed on an Ika MTS 2/4 Digital Microtiter Shaker at 750 rpm for 2 min, centrifuged at 1,000×g at 25° C. for I min, and allowed to equilibrate for 2 h at room temperature before TR-FRET measurements were taken.
(§3) PRISM 9 (GraphPad) was used to perform non-linear regression analysis (log(inhibitor) vs. response—Variable slope (four parameters)), plot dose-response curves, and calculate iC50 values.
(§4) Test compounds were dispensed in duplicate, triplicate, or sextuplicate dose-response format using a D300 digital dispenser (Hewlett Packard). […] Plates were mixed on an Ika MTS 2/4 Digital Microtiter Shaker at 750 rpm for 2 min, centrifuged at 1,000×g at 25° C. for 1 min, and allowed to equilibrate for 2 h at room temperature.
(§5) GraphPad PRISM was used to perform non-linear regression (log(inhibitor) vs. response—Variable slope (four parameters)), plot dose-response curves, and calculate IC50 values.
(§6) This assay was generally conducted in the same manner as the CoraFluor-1-Halo format with minor differences. […] Each well was supplemented with 1 nM CoraFluor-1-Pfp-labeled anti-His6 antibody before the 2 h incubation.
(§7) TR-FRET measurements were acquired in kinetic mode (1 read every ˜45 s) for at least 10 min.

[11] = target: T7, PfcProRS (Plasmodium falciparum, UniProt Q8I5R7); assay: biochemical; format: binding; conditions: PfcProRS KD, absence of substrates (0 μM ATP)
T7 construct: made in house; host or cells: SoluBL-21 E. coli
T7 sequence (Q8I5R7 249-746): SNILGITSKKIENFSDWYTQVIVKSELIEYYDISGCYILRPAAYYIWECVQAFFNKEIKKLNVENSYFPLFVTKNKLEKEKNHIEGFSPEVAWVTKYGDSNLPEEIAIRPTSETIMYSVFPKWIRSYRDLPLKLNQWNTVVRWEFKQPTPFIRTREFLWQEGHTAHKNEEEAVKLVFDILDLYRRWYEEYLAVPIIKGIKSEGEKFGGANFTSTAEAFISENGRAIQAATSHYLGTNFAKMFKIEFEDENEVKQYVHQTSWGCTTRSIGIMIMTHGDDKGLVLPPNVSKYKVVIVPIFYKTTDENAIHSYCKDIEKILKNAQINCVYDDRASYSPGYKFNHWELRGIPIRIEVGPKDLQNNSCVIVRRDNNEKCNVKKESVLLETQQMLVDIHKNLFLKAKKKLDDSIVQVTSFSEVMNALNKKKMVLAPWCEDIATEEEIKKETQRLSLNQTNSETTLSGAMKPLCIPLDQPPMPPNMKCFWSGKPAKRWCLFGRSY
Procedure: as §1, §2, §3, §4, §5, §6, §7

T5 sequence (Q14145 whole entry): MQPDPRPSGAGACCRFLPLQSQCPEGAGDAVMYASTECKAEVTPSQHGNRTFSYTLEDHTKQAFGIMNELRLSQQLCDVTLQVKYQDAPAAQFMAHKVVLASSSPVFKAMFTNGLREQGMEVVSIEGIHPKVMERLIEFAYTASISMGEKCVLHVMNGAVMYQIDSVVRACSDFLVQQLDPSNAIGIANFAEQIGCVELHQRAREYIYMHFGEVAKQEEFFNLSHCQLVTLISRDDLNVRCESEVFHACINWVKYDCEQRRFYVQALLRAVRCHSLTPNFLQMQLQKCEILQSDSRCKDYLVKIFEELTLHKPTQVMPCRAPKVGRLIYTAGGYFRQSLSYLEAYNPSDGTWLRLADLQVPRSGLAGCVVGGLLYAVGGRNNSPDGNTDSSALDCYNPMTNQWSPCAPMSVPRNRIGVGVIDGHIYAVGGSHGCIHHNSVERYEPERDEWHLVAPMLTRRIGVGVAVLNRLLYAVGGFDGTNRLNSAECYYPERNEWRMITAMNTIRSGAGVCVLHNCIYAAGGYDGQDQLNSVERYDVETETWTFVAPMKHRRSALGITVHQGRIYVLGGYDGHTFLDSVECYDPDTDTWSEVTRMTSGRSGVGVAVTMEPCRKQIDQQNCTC
T4 sequence (Q14145 whole entry): as above
T1 sequence (P9WFU3 whole entry): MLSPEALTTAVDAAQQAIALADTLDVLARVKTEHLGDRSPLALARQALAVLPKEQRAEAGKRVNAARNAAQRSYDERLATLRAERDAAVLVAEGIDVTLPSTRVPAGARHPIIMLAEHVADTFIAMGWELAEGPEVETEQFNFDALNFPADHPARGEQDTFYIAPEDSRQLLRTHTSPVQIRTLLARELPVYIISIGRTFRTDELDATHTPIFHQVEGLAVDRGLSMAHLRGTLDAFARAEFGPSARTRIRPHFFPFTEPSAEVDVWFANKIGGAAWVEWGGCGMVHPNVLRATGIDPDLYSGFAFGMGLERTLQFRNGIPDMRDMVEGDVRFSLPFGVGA
T1 sequence (P9WFU1 whole entry, further chain): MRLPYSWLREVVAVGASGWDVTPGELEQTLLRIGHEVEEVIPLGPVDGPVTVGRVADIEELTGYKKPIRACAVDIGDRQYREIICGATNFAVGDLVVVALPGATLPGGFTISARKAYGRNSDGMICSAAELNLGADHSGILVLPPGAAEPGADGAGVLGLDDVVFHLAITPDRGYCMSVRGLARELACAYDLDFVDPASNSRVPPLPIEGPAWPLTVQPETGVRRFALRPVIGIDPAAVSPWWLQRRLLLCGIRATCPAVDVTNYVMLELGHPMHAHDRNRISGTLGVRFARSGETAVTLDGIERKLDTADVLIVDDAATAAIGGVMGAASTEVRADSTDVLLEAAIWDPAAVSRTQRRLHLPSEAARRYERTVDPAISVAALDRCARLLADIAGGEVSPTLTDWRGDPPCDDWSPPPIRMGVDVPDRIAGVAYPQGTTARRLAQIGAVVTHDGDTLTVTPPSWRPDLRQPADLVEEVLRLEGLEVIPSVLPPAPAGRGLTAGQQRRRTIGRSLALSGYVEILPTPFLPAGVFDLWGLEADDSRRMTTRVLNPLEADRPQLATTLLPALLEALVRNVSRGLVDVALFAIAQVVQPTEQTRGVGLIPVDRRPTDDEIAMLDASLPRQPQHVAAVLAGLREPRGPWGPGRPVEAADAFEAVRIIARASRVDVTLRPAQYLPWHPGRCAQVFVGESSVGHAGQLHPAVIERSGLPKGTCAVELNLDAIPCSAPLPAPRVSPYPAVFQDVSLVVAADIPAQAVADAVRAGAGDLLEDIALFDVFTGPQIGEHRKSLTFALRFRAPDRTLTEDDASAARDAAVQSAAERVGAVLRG
T3 sequence (P07814 whole entry): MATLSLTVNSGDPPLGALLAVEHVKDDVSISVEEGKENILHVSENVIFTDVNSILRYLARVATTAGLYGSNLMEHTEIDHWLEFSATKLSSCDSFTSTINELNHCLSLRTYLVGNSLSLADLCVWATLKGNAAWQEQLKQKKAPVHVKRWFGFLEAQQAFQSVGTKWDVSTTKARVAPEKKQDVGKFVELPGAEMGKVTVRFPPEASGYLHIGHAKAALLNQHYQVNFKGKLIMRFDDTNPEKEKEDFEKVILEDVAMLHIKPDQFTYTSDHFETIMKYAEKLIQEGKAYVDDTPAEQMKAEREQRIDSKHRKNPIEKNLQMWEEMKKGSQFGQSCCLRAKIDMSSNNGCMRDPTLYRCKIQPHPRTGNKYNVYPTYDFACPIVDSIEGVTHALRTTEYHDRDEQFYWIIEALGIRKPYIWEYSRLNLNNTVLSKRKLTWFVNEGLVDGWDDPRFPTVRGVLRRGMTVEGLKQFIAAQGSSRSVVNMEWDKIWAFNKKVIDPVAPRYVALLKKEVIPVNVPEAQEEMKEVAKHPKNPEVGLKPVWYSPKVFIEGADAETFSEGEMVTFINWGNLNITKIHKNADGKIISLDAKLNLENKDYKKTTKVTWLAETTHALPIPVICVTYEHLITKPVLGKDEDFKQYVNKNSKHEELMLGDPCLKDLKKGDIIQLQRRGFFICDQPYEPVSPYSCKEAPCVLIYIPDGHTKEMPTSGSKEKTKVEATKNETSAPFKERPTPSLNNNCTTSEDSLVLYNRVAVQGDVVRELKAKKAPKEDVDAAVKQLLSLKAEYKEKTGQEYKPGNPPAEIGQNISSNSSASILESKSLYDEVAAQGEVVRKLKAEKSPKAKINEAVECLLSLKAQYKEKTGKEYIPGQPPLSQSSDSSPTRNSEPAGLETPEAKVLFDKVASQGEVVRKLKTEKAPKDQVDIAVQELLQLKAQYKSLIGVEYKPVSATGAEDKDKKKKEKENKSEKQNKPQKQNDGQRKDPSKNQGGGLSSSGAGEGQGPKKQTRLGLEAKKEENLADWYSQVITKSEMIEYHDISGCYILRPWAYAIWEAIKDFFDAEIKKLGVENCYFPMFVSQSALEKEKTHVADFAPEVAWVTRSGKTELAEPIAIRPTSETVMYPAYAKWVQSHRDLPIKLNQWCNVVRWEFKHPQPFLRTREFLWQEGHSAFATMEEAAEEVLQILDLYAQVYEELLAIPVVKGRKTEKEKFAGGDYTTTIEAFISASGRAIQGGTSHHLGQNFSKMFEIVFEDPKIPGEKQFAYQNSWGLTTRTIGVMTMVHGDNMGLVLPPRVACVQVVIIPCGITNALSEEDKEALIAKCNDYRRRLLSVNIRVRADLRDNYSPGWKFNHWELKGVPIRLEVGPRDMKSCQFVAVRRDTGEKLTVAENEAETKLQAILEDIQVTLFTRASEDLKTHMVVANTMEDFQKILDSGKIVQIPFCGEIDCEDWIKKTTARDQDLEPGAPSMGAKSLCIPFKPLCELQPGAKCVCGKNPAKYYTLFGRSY

Which results are given for `Nc1ncnc2c1ncn2[C@@H]1O[C@H](CNS(=O)(=O)NC(=O)[C@@H](N)Cc2ccccc2)[C@@H](O)[C@H]1O` [PheSNA, (S)-amino-N-(N-(((2R,3S,4R,5R)-5-(6-amino-9H-purin-9-yl)-3,4-dihydroxytetrahydrofuran-2-y)methyl)sulfamoyl)-3-phenylpropanamide]?
IC50 [1]: 2000 nM; IC50 [2]: 140 nM

For `Nc1ncnc2c1ncn2[C@@H]1O[C@H](CN(CCCCCCOCCOCCNC(=O)c2ccc(C(=O)O)c(-c3c4ccc(=O)cc-4oc4cc(O)ccc34)c2)S(=O)(=O)NC(=O)[C@@H](N)CCC(=O)O)[C@@H](O)[C@H]1O` [MAT579, 4-((2-(2-((6-((N-(L-glutamyl)sulfamoyl)(((2R,3S,4R,5R)-5-(6-amino-9H-purin-9-yl)-3,4-dihydroxytetrahydrofuran-2-yl)methyl)amino)hexyl)oxy)ethoxy)ethyl)carbamoyl)-2-(6-hydroxy-3-oxo-3H-xanthen-9-yl)benzoic acid], which “TR-FRET signal” value [3] is on record?
The value was “No TR-FRET signal was observed”.

With `O=C(CCCCCN1CCN2CCNC(=O)c3cccc(c3[O-])C(=O)NCCN(CCNC(=O)c3cccc(c3[O-])C1=O)CCN1CCNC(=O)c3cccc(c3[O-])C(=O)NCCN(CCNC(=O)c3cccc(c3[O-])C(=O)NCC1)CC2)NCCOCCOCCCCCCCl.[Tb+3]` [Cora-1-Halo] as the compound, how does the “log D” value [4] read?
The value was −0.7.

With `O=C(CCCCCN1CCN2CCNC(=O)c3cc(Cl)cc(c3[O-])C(=O)NCCN(CCNC(=O)c3cc(Cl)cc(c3[O-])C1=O)CCN1CCNC(=O)c3cc(Cl)cc(c3[O-])C(=O)NCCN(CCNC(=O)c3cc(Cl)cc(c3[O-])C(=O)NCC1)CC2)NCCOCCOCCCCCCCl.[Tb+3]` [Cora-2-Halo] as the compound, how does the “log D” value [4] read?
Its value is 0.7.

Which IC50 [5] does the source give for `Cc1sc2c(c1C)C(c1ccc(Cl)cc1)=NC(CC(=O)NCCCOCCOCCOCCCNC(=O)[C@]13CCC(C)(C)C[C@H]1[C@H]1C(=O)C=C4[C@@]5(C)C=C(C#N)C(=O)C(C)(C)[C@@H]5CC[C@@]4(C)[C@]1(C)CC3)c1nnc(C)n1-2` (stereo partly drawn) [CDDO-JQ1, (4aS,6aR,6bS,8aR,12aS,14aR,14bS)-N-(1-(4-(4-chlorophenyl)-2,3,9-trimethyl-6H-thieno[3,2-f][1,2,4]triazolo[4,3-a][1,4]diazepin-6-yl)-2-oxo-7,10,13-trioxa-3-azahexadecan-16-yl)-11-cyano-2,2,6a,6b,9,9,12a-heptamethyl-10,14-dioxo-1,3,4,5,6,6a,6b,7,8,8a,9,10,12a,14,14a,14b-hexadecahydropicene-4a(2H)-carboxamide] here?
The IC50 was 495000 nM.

What about the inhibition at 100 µM [6] of the same compound?
The inhibition at 100 µM was less than 5%.

What about the “fold less potent than CDDO (CDDO/CDDO-Me)” value ([7]; Assay-2) of the same compound?
The value was > 250 fold and > 500 fold.

And the IC50 [8]?
Its IC50 is 2680 nM.

And the IC50 [9]?
The IC50 was 3370 nM.

What about the Kd [9] of the same compound?
The Kd was 1770 nM.

For “(S)-2-amino-N-(N-(((2R,3S,4R,5R)-S-(6-amino-9H-purin-9-yl)-3,4-dihydroxytetrahydrofuran-2-yl)methyl)-N-(6-(2-(2-aminoethoxy)ethoxy)hexyl)sulfamoyl)-3-phenylpropanamide [MAT581]”, which IC50 ([1]; phenylalanine 100 μM, ATP 200 μM) is on record?
Its IC50 is 206000 nM.

With `CC1(C)CC[C@]2(C(=O)NCCCOCCOCCOCCCNC(=S)Nc3ccc(-c4c5ccc(=O)cc-5oc5cc(O)ccc45)c(C(=O)O)c3)CC[C@]3(C)[C@H](C(=O)C=C4[C@@]5(C)C=C(C#N)C(=O)C(C)(C)[C@@H]5CC[C@]43C)[C@@H]2C1` [CDDO-FITC, 5-(3-(1-((4aS,6aR,6bS,8aR,12aS,14aR,14bS)-11-cyano-2,2,6a,6b,9,9,12a-heptamethyl-10,14-dioxo-1,3,4,5,6,6a,6b,7,8,8a,9,10,12a,14,14a,14b-hexadecahydropicen-4a(2H)-yl)-1-oxo-6,9,12-trioxa-2-azapentadecan-15-yl)thioureido)-2-(6-hydroxy-3-oxo-3H-xanthen-9-yl)benzoic acid] as the compound, how does the Kd ([7]; Kd of CDDO-FITC, saturation binding at fixed Cora-1-KL9 and Keap1, one-site model) read?
Its Kd is 164 ± 37.1 nM.

And the Kd [9]?
Its Kd is 164 nM.

For `Nc1ncnc2c1ncn2[C@@H]1O[C@H](CN(CCCCCCOCCOCCNC(=O)c2ccc(C(=O)O)c(-c3c4ccc(=O)cc-4oc4cc(O)ccc34)c2)S(=O)(=O)NC(=O)[C@@H]2CCCN2)[C@@H](O)[C@H]1O` [MAT574, 4-((2-(2-((6-((N-(L-prolyl)sulfamoyl)(((2R,3S4R,5R)-5-(6-amino-9H-purin-9-yl)-3,4-dihydroxytetrahydrofuran-2-yl)methyl)amino)hexyl)oxy)ethoxy)ethyl)carbamoyl)-2-(6-hydroxy-3-oxo-3H-xanthen-9-yl)benzoic acid], which Kd [10] is on record?
The Kd was 72.2 nM.

What about the “TR-FRET signal” value [3] of the same compound?
The value was “specific TR-FRET signal”.

What about the Kd [11] of the same compound?
Its Kd is 2270 nM.
